Experimental data taken from patent US20260207581A1, “Small Molecule Inhibitor for Inflammatory Pain Inhibition” (University of Rochester, priority 2023, published 2026).
Entries after “also recorded” stand apart in the source; their conditions may differ.

Tests used:
[1] = test system: inflammatory genes, matrix proteins, adhesion molecules and neuropeptides in TMJ tissues; experiment: qRT-PCR analysis of gene expression in TMJ tissues of the CFA model; type: in vivo, rat
Procedure: To see if this reduction in inflammation and its associated damage could provide therapeutic benefit, the ability of PFI-2 to reduce inflammatory pain was examined. Animals were injected with saline or CFA and meal duration, a proxy for pain, was examined over a span of 21 days post-injection. […] Calcitonin gene-related peptide (CGRP) localization and expression in the synovial membrane were examined by immunostaining, where it was observed that CGRP was localization in synovial cells and neurons was increased in animals treated with CFA (FIG. 4C and FIG. 4D).
Expression of Osteogenic, Chondrogenic and Inflammatory Genes in a TMD model: To generate benchmark data for functional and mechanistic studies TMJ discs, synovia, and condyles are dissected and mRNA and protein expression levels of bone marker genes measured, including collagen type I (Col I), alkaline phosphatase (Alp), Runx2, Osterix (Osx), osteocalcin (Ocn), and bone sialoprotein (Ibsp), as well as cartilage marker genes such as collagen II, Sox 9, Col X, and biglycans. To characterize the effect of the YAP upregulator PFI-2 on inflammation and osteoclast formation, the expression of inflammatory cytokines (IL-1b, IL-6, TNF-α), NF-κB, MMPs (MMP2, MMP9 and MMP13), adhesion molecules (CDH11, ICAM, Integrin β1), and osteoclastogenesis-related genes (Rank, Rankl, Opg, Trap5b, and NFATc1) is detected using quantitative RT-PCR and Western blotting as described by Walker et al. (2010). Localization of these genes in the inflamed TMJ is further specified using immunofluorescence.
Inflammatory Changes in the Expression of Neuropeptides CGRP, NPY and SP1 in vivo and in vitro: For in vivo studies, rat TMJ discs, synovial membrane, condyle, trigeminal ganglia and trigeminal nucleus caudalis are collected bilaterally from saline-or CFA-treated rats for RNA and protein isolation, and histological analysis. The expression of CGRP, NPY, TAC1, and Galanin (GAL) at gene and protein levels are measured using qRT-PCR and Western blotting. For histology, tissues are fixed in 4% paraformaldehyde and prepared for paraffin sections as described previously (Lu et al, 2016a, b). Cells and neurons positive for CGRP, NPY, SP1 (an isoform of TAC1 protein) and Gal are visualized via immunofluorescence or immunohistochemistry using antibodies against CGRP, GAL, NYP, and TAC1 (Abcam). Expression levels of these genes and the numbers of immunoreactive cells are compared between different treatment groups.

RSSCs = experiment: BrdU labeling and β-gal senescence staining of TNF-α treated RSSCs; type: cell-based, rat; conditions: RSSCs treated with TNFα
IL-1β expression = experiment: Cultured condyle organs treated with IL-6, IL-1β immunostaining; type: cell-based; conditions: IL-6 plus PFI-2
SETD7 = target: T1, SETD7 (Rattus norvegicus, UniProt A0A8I6A0F7); experiment: SETD7 and YAP localization and protein methylation in TNF-α treated RSSCs; type: cell-based; conditions: RSSCs treated with TNF-α
T1 construct: endogenous in cells; host or cells: primary rat synovial mesenchymal stem cells (RSSCs)
T1 sequence (A0A8I6A0F7 1-367): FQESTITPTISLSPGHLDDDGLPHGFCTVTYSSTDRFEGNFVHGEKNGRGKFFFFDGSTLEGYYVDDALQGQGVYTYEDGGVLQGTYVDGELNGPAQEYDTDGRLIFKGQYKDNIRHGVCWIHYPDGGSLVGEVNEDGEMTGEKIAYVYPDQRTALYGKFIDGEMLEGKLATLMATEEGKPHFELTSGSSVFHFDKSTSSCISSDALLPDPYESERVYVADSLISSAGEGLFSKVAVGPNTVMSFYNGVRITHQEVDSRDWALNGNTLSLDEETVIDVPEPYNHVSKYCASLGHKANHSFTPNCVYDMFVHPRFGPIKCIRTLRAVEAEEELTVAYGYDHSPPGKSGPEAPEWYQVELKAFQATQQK
Procedure: As a first step, the expression and localization of SETD7 and YAP are examined in RCs and RSSCs at the mRNA and protein level under physiological and inflammatory conditions. RCs and RSSCs are cultured with or without TNF-α for 6, 12, and 24 hours. Proteins and mRNAs from cultured cells are isolated for RT-PCR and Western Blot analyses. The localization of SETD7 and YAP in relationship toward each other is visualized by immunofluorescence, and the methylation levels and distribution of YAP in nuclei and cytoplasm are determined by Western blotting using anti-SETD7 and anti-YAP antibodies (Abcam). To determine whether YAP and SETD7 interact, co-immunoprecipitation assays is performed, and the degree of interaction between SETD7 and YAP is compared between TNF-α-treated cells and control cells (Ito et al. 2011).
Rat synovial mesenchymal stem cells (RSSCs) were cultured and examined for SETD7 nuclear localization.

YAP1 = experiment: YAP / Sox9 immunolocalization in TMJ discs and condylar growth plate of the CFA model; type: in vivo, rat
Procedure: Because of this initial success, it was further examined if PFI-2 treatment could rescue inhibition of chondrocyte maturation and return YAP expression in the condylar growth plate of animals suffering from inflammation. To test the ability to repair damage, animals were injected with saline or CFA. After inflammation, a subset of the CFA-treated animals were also injected with PFI-2. Tissue samples from each were stained with H&E, safranin O, and PCNA, YAP was detected by immunostaining, and cartilage differentiation was determined by immunostaining for Sox 9 (FIG. 3A-FIG. 3O). The samples were also examined by RT-PCR for expression levels of collagen 2, collagen 10, Mmp 13 metalloproteinase, Runx2 bone transcription factor, and Sox 9 (FIG. 3P).
Here, the role of the Hippo pathway effectors YAP and TAZ is elucidated in an inflammatory TMD models. YAP and TAZ interact with DNA-binding factors of the TEAD family in the nucleus to regulate gene expression. […] First, the expression and subcellular localization of YAP is characterized under physiological and inflammatory conditions in TMJ tissues, RSSCs and RCs. The expression pattern of the YAP protein in TMJ tissues are elucidated by immunohistochemistry using anti-YAP antibody and the expression levels of YAP mRNA and protein is determined using qRT-PCR and Western blotting. […]

[2] = test system: SETD1, IL-6 and MMP2 expression; experiment: qRT-PCR and Western blotting of selected inflammatory genes under TNFα; type: cell-based, rat

SMILES: O=C([C@@H](Cc1cccc(C(F)(F)F)c1)NS(=O)(=O)c1cc(F)c2c(c1)CCNC2)N1CCCC1 [PFI-2]
- expression of CGRP, NPY and TAC in TMJ tissues (qRT-PCR) ([1]; CFA-PFI-treated (CP) vs CFA-treated (CV)): reduced to near-normal levels
- expression of CGRP, NPY and TAC in TMJ tissues (qRT-PCR) ([1]; CFA-PFI-treated (CP) vs CFA-treated (CV), listed as PFI): almost reduced to normal levels
- inflammatory gene / cytokine expression in TMD tissues (qRT-PCR) ([1]; rats, CFA model): inhibited the expression of inflammatory cytokines; also recorded: downregulated inflammatory gene expression
- matrix protein and adhesion molecule expression in TMJ tissues (qRT-PCR) ([1]; rats, CFA-PFI-treated (CP) vs CFA-treated (CV)): reversed the upregulation
- BrdU positive proliferating cells (RSSCs): restored the proliferative potential of inflammation-compromised cells; also recorded: restored cellular proliferation
- β-gal+ cell senescence (RSSCs): inhibited TNFα-induced cell senescence
- IL-1β expression (immunostaining) (IL-1β expression): inhibited the expression of IL-18; also recorded: inhibited IL-1β expression
- swelling of the articular surface (thickness of fibrous and proliferative cell zones) (IL-1β expression): reversed the swelling of the articular surface
- SETD7 nuclear localization (SETD7): blocked the effect of TNF-α on SETD7 nuclear localization
- global protein methylation levels in whole cell lysates (Western blot) (SETD7): reduces methylation; also recorded: inhibited this effect
- YAP expression and localization in the condylar growth plate (YAP1; PFI-2 injected following CFA induction of inflammatory conditions): rebalance YAP1 expression; also recorded: re-localized YAP1 and SOX9 proteins; also recorded: returned YAP expression
- YAP1 immunolocalization in TMJ discs (YAP1; rats, CFA model): translocated YAP into nuclei
- TNFα-induced gene dysregulation (Western blotting) [2]: confirmed
- TNFα-induced upregulation of SETD1, IL-6 and MMP2 expression (qRT-PCR) ([2]; PFI-2 at 1, 10, and 50 μM): inhibited by treatment with PFI-2 in a dose-dependent manner; also recorded: inhibited TNFα-induced upregulation in a dose-dependent manner
